From patent US20220257646A1, “COMPOSITIONS AND METHODS FOR TREATING SKIN CONDITIONS” (The Regents of the University of California, priority 2019, published 2022)

System: P. acnes strains
Assay: Porphyrin production by P. acnes strains in culture media (iron/cobalt supplemented or depleted)
Type: cell-based, Propionibacterium acnes

## [Fe] [iron]
Acne associated P. acnes strains (FIG. 4)
  porphyrin production: reduces porphyrin production
Iron added back to iron depleted (chelated) media, P. acnes strains (FIG. 4)
  chelator effect on porphyrin production: diminishes chelator effect
Iron depletion, acne associated P. acnes strains (FIG. 6)
  porphyrin production: increases porphyrin production
Iron supplemented in the media, P. acnes strains (FIG. 1)
  porphyrin production: low porphyrin production
Vitamin B12 supplemented conditions, acne associated P. acnes strains (FIG. 6)
  effect of iron depletion on porphyrin production: remains

## [Co] [cobalt]
Depletion of cobalt, P. acnes (FIG. 5)
  porphyrin production: significantly promoted the porphyrin production
